Source: patent publication US20080269213A1, “8-Hydroxyquinoline compounds and methods thereof” (Wyeth, priority 2006, published 2008)
Like-named read-outs stand apart in the source and are kept apart here. Blank lines part the entries; values can stand above or below the compound they belong to.

Columns and labels:
Agg-1 = target: T1, Agg-1 (Homo sapiens, UniProt O75173); test: Agg-1 FRET assay; format: biochemical; conditions: for inhibition at 7.4 µM: @ 7400 nM; for inhibition at 0.8 µM: @ 800 nM; for inhibition at 11 µM: @ 11000 nM; for inhibition at 22.2 µM: @ 22200 nM
T1 sequence (O75173 213-837): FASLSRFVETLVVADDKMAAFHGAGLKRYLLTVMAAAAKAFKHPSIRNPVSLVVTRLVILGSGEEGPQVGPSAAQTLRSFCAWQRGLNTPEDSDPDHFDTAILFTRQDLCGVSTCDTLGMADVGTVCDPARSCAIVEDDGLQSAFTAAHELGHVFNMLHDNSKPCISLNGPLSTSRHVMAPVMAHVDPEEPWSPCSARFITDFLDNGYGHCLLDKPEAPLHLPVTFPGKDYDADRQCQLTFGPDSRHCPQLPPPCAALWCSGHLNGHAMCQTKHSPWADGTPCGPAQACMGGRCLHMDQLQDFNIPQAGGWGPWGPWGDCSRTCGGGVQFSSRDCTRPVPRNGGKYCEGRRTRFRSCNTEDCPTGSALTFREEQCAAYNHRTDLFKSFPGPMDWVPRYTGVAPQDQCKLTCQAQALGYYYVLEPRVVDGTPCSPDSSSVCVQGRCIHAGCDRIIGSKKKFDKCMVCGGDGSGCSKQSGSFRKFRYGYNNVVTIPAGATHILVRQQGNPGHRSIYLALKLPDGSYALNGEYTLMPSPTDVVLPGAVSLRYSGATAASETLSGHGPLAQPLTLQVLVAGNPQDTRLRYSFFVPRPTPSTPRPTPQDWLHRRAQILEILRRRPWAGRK
Source text: The Agg-1/Agg-2 FRET data for N-[(8-hydroxyquinolin-2-yl)(phenyl)methyl]-2-phenoxyacetamide and 2-{[(phenoxyacetyl)amino](phenyl)methyl}quinolin-8-yl phenoxyacetate is presented in Table 1.

[1] = target: T2, recombinant human Aggrecanase-2 Agg2-Phe628 (Homo sapiens, UniProt Q9UNA0); test: Aggrecanase 2 in vitro enzyme assay (Agg-2 FRET, quenched fluorescent peptide substrate); format: biochemical; set-up: purified recombinant human Aggrecanase-2 Agg2-Phe628 (MW=41,737); This is a truncated form of full-length human aggrecanase-2; made in house; host or cells: CHO cells; conditions: for Agg-2 FRET Median PCT INHIB: concentration not given; for inhibition at 200 µM: read-out: Agg-2 FRET % (printed in FRET IC50 column)
T2 sequence (Q9UNA0 262-628 limits assumed): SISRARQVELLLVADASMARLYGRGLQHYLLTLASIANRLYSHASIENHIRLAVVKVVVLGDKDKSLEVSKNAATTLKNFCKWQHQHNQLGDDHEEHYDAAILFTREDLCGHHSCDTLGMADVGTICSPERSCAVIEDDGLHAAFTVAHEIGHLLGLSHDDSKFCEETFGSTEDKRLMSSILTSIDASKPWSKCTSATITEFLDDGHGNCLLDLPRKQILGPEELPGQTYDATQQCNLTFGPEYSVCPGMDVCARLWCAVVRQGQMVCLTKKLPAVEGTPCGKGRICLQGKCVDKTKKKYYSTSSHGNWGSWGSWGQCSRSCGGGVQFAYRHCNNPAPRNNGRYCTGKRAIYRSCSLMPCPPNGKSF
Outline: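 Continuous FRET assay with purified truncated human Aggrecanase-2 Agg2-Phe628 (CHO-expressed, 0.5 μg/ml final) and brevican-derived Abz/Dnp peptide (25 μM final) in 50 mM HEPES pH 7.5, 100 mM NaCl, 5 mM CaCl2, 0.1% CHAPS, 5% glycerol. Enzyme preincubated with compound before substrate; fluorescence (ex 340/em 420 nm) followed kinetically 40 min at 30 °C.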

[2] = read-out: Agg-2 FRET Median IC50

- inhibition at 0.8 µM (Agg-1; read-out: Agg1 %): 30%
- inhibition at […] ([1]; @ 2500 nM): 47%
SMILES: CCC/C=C/C(NC(=O)COc1ccccc1)c1cc(Cl)c2cccnc2c1O (stereo not drawn) [N-[(2E)-1-(5-chloro-8-hydroxyquinolin-7-yl)hex-2-en-1-yl]-2-phenoxyacetamide]

- inhibition at 11 µM (Agg-1; read-out: Agg1 %): 47%
- inhibition at […] ([1]; @ 2500 nM): 50%
SMILES: CO/C(=C\c1ccccc1)C(NC(=O)COc1ccccc1)c1cc(Cl)c2cccnc2c1O (stereo not drawn) [N-[(2Z)-1-(5-chloro-8-hydroxyquinolin-7-yl)-2-methoxy-3-phenylprop-2-en-1-yl]-2-phenoxyacetamide]

- IC50 (Agg-1; read-out: Agg1 IC50): > 22000 nM
- Agg-2 FRET Median PCT INHIB [1]: 31%
- IC50 ([1]; read-out: Agg2 IC50): > 67000 nM
SMILES: O=C(COc1ccccc1)NC(c1ccccc1)c1cc(Cl)c2ccccc2c1O (stereo not drawn) [N-[(4-chloro-1-hydroxy-2-naphthyl)(phenyl)methyl]-2-phenoxyacetamide]

- inhibition at 22.2 µM (Agg-1; read-out: Agg1 %): 57%
- inhibition at 22.2 µM ([1]; @ 22200 nM): 50%
SMILES: Nc1cc(C(NC(=O)COc2ccccc2)c2ccccc2)c(O)c2ncccc12 (stereo not drawn) [N-[(5-amino-8-hydroxyquinolin-7-yl)(phenyl)methyl]-2-phenoxyacetamide]

- IC50 (Agg-1; read-out: Agg1 IC50): 22000 to 67000 nM
- IC50 ([1]; read-out: Agg2 IC50): 5400 nM
SMILES: O=C(CCl)NC(c1ccccc1)c1cc(Br)c2cccnc2c1O (stereo not drawn) [N-[(5-bromo-8-hydroxyquinolin-7-yl)(phenyl)methyl]-2-chloroacetamide]

- inhibition at 22.2 µM (Agg-1; read-out: Agg1 %): 64%
- IC50 ([1]; read-out: Agg2 IC50): 2480 nM
- IC50 [1, 2]: 2480 nM
SMILES: O=C(COc1ccccc1)NC(c1ccccc1)c1cc(Br)c2cccnc2c1O (stereo not drawn) [N-[(5-bromo-8-hydroxyquinolin-7-yl)(phenyl)methyl]-2-phenoxyacetamide]

- inhibition at 11 µM (Agg-1; read-out: Agg1 %): 48%
- inhibition at […] ([1]; @ 2500 nM): 57%
SMILES: Cn1c(C(NC(=O)COc2ccccc2)c2cc(Cl)c3cccnc3c2O)cc2ccccc21 (stereo not drawn) [N-[(5-chloro-8-hydroxyquinolin-7-yl)(1-methyl-1H-indol-2-yl)methyl]-2-phenoxyacetamide]

- inhibition at 11 µM (Agg-1; read-out: Agg1 %): 46%
- inhibition at […] ([1]; @ 2500 nM): 53%
SMILES: Cn1cc(C(NC(=O)COc2ccccc2)c2cc(Cl)c3cccnc3c2O)c2ccccc21 (stereo not drawn) [N-[(5-chloro-8-hydroxyquinolin-7-yl)(1-methyl-1H-indol-3-yl)methyl]-2-phenoxyacetamide]

- inhibition at 0.8 µM (Agg-1; read-out: Agg1 %): 41%
- IC50 ([1]; read-out: Agg2 IC50): 2100 nM
- IC50 [1, 2]: 2080 nM
SMILES: O=C(COc1ccccc1)NC(c1cc(Cl)c2cccnc2c1O)c1cccc2[nH]ccc12 (stereo not drawn) [N-[(5-chloro-8-hydroxyquinolin-7-yl)(1H-indol-4-yl)methyl]-2-phenoxyacetamide]

- inhibition at 7.4 µM (Agg-1; read-out: Agg1 %): 48%
- inhibition at […] ([1]; @ 1900 nM): 69%
SMILES: O=C(COc1ccccc1)NC(c1cc(Cl)c2cccnc2c1O)c1cccc2cc[nH]c12 (stereo not drawn) [N-[(5-chloro-8-hydroxyquinolin-7-yl)(1H-indol-7-yl)methyl]-2-phenoxyacetamide]

- inhibition at 7.4 µM (Agg-1; read-out: Agg1 %): 51%
- IC50 ([1]; read-out: Agg2 IC50): 850 nM
SMILES: O=C(COc1ccccc1)NC(c1ccc2c(c1)OCCO2)c1cc(Cl)c2cccnc2c1O (stereo not drawn) [N-[(5-chloro-8-hydroxyquinolin-7-yl)(2,3-dihydro-1,4-benzodioxin-6-yl)methyl]-2-phenoxyacetamide]

- IC50 (Agg-1; read-out: Agg1 IC50): ~22000 nM
- IC50 ([1]; read-out: Agg2 IC50): 1000 nM
SMILES: COc1cc(OC)cc(OCC(=O)NC(c2ccccc2Cl)c2cc(Cl)c3cccnc3c2O)c1 (stereo not drawn) [N-[(5-chloro-8-hydroxyquinolin-7-yl)(2-chlorophenyl)methyl]-2-(3,5-dimethoxyphenoxy)acetamide]

- inhibition at 10 µM (Agg-1; @ 10000 nM, read-out: Agg1 %): 48%
- IC50 ([1]; read-out: Agg2 IC50): 1280 nM
SMILES: CCc1cccc(OCC(=O)NC(c2ccccc2Cl)c2cc(Cl)c3cccnc3c2O)c1 (stereo not drawn) [N-[(5-chloro-8-hydroxyquinolin-7-yl)(2-chlorophenyl)methyl]-2-(3-ethylphenoxy)acetamide]

- IC50 (Agg-1; read-out: Agg1 IC50): > 20000 nM
- IC50 ([1]; read-out: Agg2 IC50): 2400 nM
SMILES: O=C(COc1ccc(C2CCCC2)cc1)NC(c1ccccc1Cl)c1cc(Cl)c2cccnc2c1O (stereo not drawn) [N-[(5-chloro-8-hydroxyquinolin-7-yl)(2-chlorophenyl)methyl]-2-(4-cyclopentylphenoxy)acetamide]

- inhibition at 50 µM (Agg-1; @ 50000 nM, read-out: Agg1 %): 56%
- IC50 ([1]; read-out: Agg2 IC50): 1400 nM
SMILES: CC(C)c1ccc(OCC(=O)NC(c2ccccc2Cl)c2cc(Cl)c3cccnc3c2O)cc1 (stereo not drawn) [N-[(5-chloro-8-hydroxyquinolin-7-yl)(2-chlorophenyl)methyl]-2-(4-isopropylphenoxy)acetamide]

Second part, the compound before the results:

SMILES: O=C(CNCc1ccncc1)NC(c1ccccc1)c1cc(Cl)c2cccnc2c1O (stereo not drawn) [Example 229, N[(5-chloro-8-hydroxyquinolin-7-yl)(phenyl)methyl]-N2-(pyridin-4-ylmethyl)glycinamide]
- IC50 (Agg-1; read-out: Agg1 IC50): > 67000 nM
- Agg-2 FRET Median PCT INHIB [1]: 29%
- IC50 ([1]; read-out: Agg2 IC50): > 11000 nM

SMILES: O=C(CNCc1ccc(-c2ccccc2)cc1)NC(c1ccccc1)c1cc(Cl)c2cccnc2c1O (stereo not drawn) [Example 230, N^2-(biphenyl-4-ylmethyl)-N-[(5-chloro-8-hydroxyquinolin-7-yl)(phenyl)methyl]glycinamide]
- IC50 (Agg-1; read-out: Agg1 IC50): > 20000 nM
- IC50 ([1]; read-out: Agg2 IC50): 1290 nM

SMILES: O=C(CNCc1cccc2ccccc12)NC(c1ccccc1Cl)c1cc(Cl)c2cccnc2c1O (stereo not drawn) [Example 231, N-[(5-chloro-8-hydroxyquinolin-7-yl)(2-chlorophenyl)methyl]-N2-(1-naphthylmethyl)glycinamide]
- IC50 (Agg-1; read-out: Agg1 IC50): ~20000 nM
- IC50 ([1]; read-out: Agg2 IC50): 1370 nM

SMILES: O=C(CNCc1ccc2c(c1)OCO2)NC(c1ccccc1Cl)c1cc(Cl)c2cccnc2c1O (stereo not drawn) [Example 232, N2-(1,3-benzodioxol-5-ylmethyl)-N-[(5-chloro-8-hydroxyquinolin-7-yl)(2-chlorophenyl)methyl]glycinamide]
- IC50 (Agg-1; read-out: Agg1 IC50): 13700 nM
- IC50 ([1]; read-out: Agg2 IC50): 1800 nM

SMILES: O=C(COc1ccccc1)NC(c1ccccc1)c1ccc2cccc(O)c2n1 (stereo not drawn) [Example 276, N-[(8-hydroxyquinolin-2-yl)(phenyl)methyl]-2-phenoxyacetamide]
- IC50 (Agg-1; read-out: FRET IC50 Agg-1): 15000 nM
- inhibition at 200 µM [1]: 32%

SMILES: O=C(COc1ccccc1)NC(c1ccccc1)c1ccc2cccc(OC(=O)COc3ccccc3)c2n1 (stereo not drawn) [Example 277, 2-{[(phenoxyacetyl)amino](phenyl)methyl}quinolin-8-yl phenoxyacetate]
- IC50 (Agg-1; read-out: FRET IC50 Agg-1): 4000 nM
- inhibition at 200 µM [1]: 52%

SMILES: O=C(COc1ccccc1)NC(c1cccc2c1OCO2)c1cc(Cl)c2cccnc2c1O (stereo not drawn) [N-[1,3-benzodioxol-4-yl(5-chloro-8-hydroxyquinolin-7-yl)methyl]-2-phenoxyacetamide]
- inhibition at 7.4 µM (Agg-1; read-out: Agg1 %): 54%
- IC50 ([1]; read-out: Agg2 IC50): 1400 nM

SMILES: O=C(COc1ccccc1)NC(c1ccc2c(c1)OCO2)c1cc(Cl)c2cccnc2c1O (stereo not drawn) [N-[1,3-benzodioxol-5-yl(5-chloro-8-hydroxyquinolin-7-yl)methyl]-2-phenoxyacetamide]
- IC50 (Agg-1; read-out: Agg1 IC50): > 22000 nM
- IC50 ([1]; read-out: Agg2 IC50): 1560 nM
- IC50 [1, 2]: 1560 nM

SMILES: O=C(COc1ccccc1)NC(CCc1ccccc1)c1cc(Cl)c2cccnc2c1O (stereo not drawn) [N-[1-(5-chloro-8-hydroxyquinolin-7-yl)-3-phenylpropyl]-2-phenoxyacetamide]
- inhibition at 22 µM (Agg-1; @ 22000 nM, read-out: Agg1 %): 56%
- IC50 ([1]; read-out: Agg2 IC50): 1700 nM

SMILES: O=C(COc1ccccc1)NC(/C=C/c1ccccc1)c1cc(Cl)c2cccnc2c1O (stereo not drawn) [N-[(2E)-1-(5-chloro-8-hydroxyquinolin-7-yl)-3-phenylprop-2-en-1-yl]-2-phenoxyacetamide]
- inhibition at 7.5 µM (Agg-1; @ 7500 nM, read-out: Agg1 %): 50%
- IC50 ([1]; read-out: Agg2 IC50): 1600 nM

SMILES: O=C(Cc1ccccc1)NC(/C=C/c1ccccc1)c1cc(Cl)c2cccnc2c1O (stereo not drawn) [N-[(2E)-1-(5-chloro-8-hydroxyquinolin-7-yl)-3-phenylprop-2-en-1-yl]-2-phenylacetamide]
- inhibition at 20 µM (Agg-1; @ 20000 nM, read-out: Agg1 %): 45%
- IC50 ([1]; read-out: Agg2 IC50): 50000 nM
- IC50 [1, 2]: 50000 nM

SMILES: CCCCOc1ccc(C(NC(=O)COc2ccccc2)c2cc(Cl)c3cccnc3c2O)cc1 (stereo not drawn) [N-[(4-butoxyphenyl)(5-chloro-8-hydroxyquinolin-7-yl)methyl]-2-phenoxyacetamide]
- inhibition at 67 µM (Agg-1; @ 67000 nM, read-out: Agg1 %): 50%
- inhibition at […] ([1]; @ 2500 nM): 55%
